# From patent publication US10632106B2, “Methods of cancer treatment with 2-(1′H-Indole-3′-carbonyl)-thiazole-4-carboxylic acid methyl ester” (Ariagen, Inc., priority 2009, dated 2020)
# Experiments:
# Type in all cases: in vivo
# [1] = test system: A375 (human skin cancer) xenografts; assay: A375 xenograft growth inhibition; details: ITE 100-200 mg/kg i.p. once daily
# Method: (§1) All the procedures related to animal handling, care, and the treatment in the study were performed following guidelines of KeyGen Biotechn Co., Ltd. (Nanjing, China), a contract research organization we hired, based on the guidance of the Association for Assessment and Accreditation of Laboratory Animal Care (AAALAC). Animals were checked for any effects of tumor growth and drug treatment on normal behavior such as mobility, food and water consumption, body weight gain/loss (bodyweights were measured every two days), eye/hair matting, and any other abnormal effect. Death and observed clinical signs were recorded. Individual animals with a tumor volume exceeding 3,000 mm^3 or animals of a group with a mean tumor volume exceeding 2,000 mm^3 were euthanized. In addition, animals showing signs of severe distress and/or pain or losing the capability of accessing adequate food or water were humanely sacrificed.
# (§2) Cell lines HCT116, Siha, MFC were cultured in DMEM medium (high glucose) supplemented with 10% fetal bovine serum (FBS), SW116 and T24 in RPMI-1640 medium with 10% FBS, M14 and A375 in DMEM medium (high glucose) with 10% calf serum (CS), SGC7901 and Ketr-3 in RPMI-1640 medium with 10% CS, and CFPAC-1 in IMDM medium with 10% FBS. All of the cells were cultured, in the presence of 100 U/ml penicillin and 100 μg/ml streptomycin, at 37° C. in an atmosphere of 5% CO2 in air. […] The cells growing in an exponential phase were harvested and counted for tumor inoculation. Cell lines 5180 and U14 were maintained in ascites (peritoneal cavity fluid) of mice and were harvested and counted for tumor inoculation. […]
# (§3) Tumor volume was measured every two days in two dimensions using a caliper and the volume was calculated with a formula of: V=0.5 a×b^2, where a and b are the long and short diameter (in mm) of a tumor, respectively. […] The TGD was calculated as: TGD=T−C, where T was the time (in days) required for tumors in a drug treated group to reach a predetermined mean tumor volume and C the time (in days) in the control group to reach the same volume. […]
# [2] = test system: MFC (mouse stomach cancer) homografts; assay: MFC homograft (syngeneic) growth inhibition in 615 mice; details: ITE 200-300 mg/kg i.p. once daily
# Method: as §1, §2, §3
# [3] = test system: CFPAC-1 (human pancreatic cancer) xenografts; assay: CFPAC-1 xenograft growth inhibition; details: ITE 100-200 mg/kg i.p. once daily
# Method: as §1, §2, §3
# [4] = end of therapy relative to beginning
smiles,measurement,setting,value
"COC(=O)c1csc(C(=O)c2c[nH]c3ccccc23)n1 [ITE, 2-(1′H-indole-3′-carbonyl)-thiazole-4-carboxylic acid methyl ester]",TGD,"[1]; TGD at Vol. 1,000",7 days
same,TGI (%),"[1]; TGI at day 16, TGI=(1−ΔT/ΔC)×100%",60%
same,Weight Loss,[1]; [4],18%
same,TGD,"[2]; TGD at Vol. 2,000",9 days
same,TGI (%),"[2]; TGI at day 10, TGI=(1−ΔT/ΔC)×100%",70%
same,Weight Loss,[2]; [4],16%
same,TGD,"[3]; TGD at Vol. 1,000",8 days
same,TGI (%),"[3]; TGI at day 26, TGI=(1−ΔT/ΔC)×100%",58%
same,Weight Loss,[3]; [4],14%
